Measured values reported in patent US20120329721A1, “MEANS FOR PREVENTING AND TREATING CELLULAR DEATH AND THEIR BIOLOGICAL APPLICATIONS” (CHIESI FARMACEUTICI S.P.A., priority 2003, published 2012).
Where two headings read alike, the source gives them in different places. Starred links: 1 amine or outer side, 2 acyl side, 3 side chain; linkers in the order of their positions; H or OH if unused. Positions of bridges follow the written chain, without caps; N, C: chain ends. Non-standard residues stand in square brackets, D forms with d. Residues, ends and D or L forms follow the SMILES beside them. Chains are numbered I, II in the order given. *: point of attachment. Actinocin(9to1) = Cc1c2oc3c(C)ccc(C(=O)[*:1])c3nc-2c(C(=O)[*:2])c(N)c1=O; X1 = COC(=O)C[C@H](N*)C(=O)COc1c(F)cccc1F; Sta = CC(C)C[C@H](N)[C@@H](O)CC(=O)O; Quinaldoyl = O=C(c1ccc2ccccc2n1)*; NMeV = CN[C@H](C(=O)O)C(C)C; Isovaleryl = CC(C)CC(=O)*; Cbz = O=C(OCc1ccccc1)*; Sar = CNCC(=O)O; CH2F = FC*

Assays:
primary cortical neurons [1] = assay type: cell-based
[2] = biological target: T1, human recombinant caspase-2 (Homo sapiens, UniProt P42575); experiment: In vitro VDVAD-AMC cleavage by recombinant caspase-2; assay type: biochemical; conditions: inhibitor 2 μM, 50 μM VDVAD-AMC, caspase-2 125 U, 30 min at 37° C.
T1 construct: purchased BIOMOL
T1 sequence (P42575 170-325 limits assumed): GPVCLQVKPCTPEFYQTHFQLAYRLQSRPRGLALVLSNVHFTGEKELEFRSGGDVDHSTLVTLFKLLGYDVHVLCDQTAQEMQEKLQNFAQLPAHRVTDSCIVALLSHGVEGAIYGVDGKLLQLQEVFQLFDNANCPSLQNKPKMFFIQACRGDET
T1 sequence (P42575 348-452 limits assumed): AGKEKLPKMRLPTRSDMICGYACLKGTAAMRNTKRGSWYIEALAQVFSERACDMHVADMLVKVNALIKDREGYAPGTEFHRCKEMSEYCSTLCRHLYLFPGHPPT
Experimental: Activity of human recombinant caspase-2 (BIOMOL QuantiZyme™ Assay System) was assessed in 100 μl assay buffer (50 mM HEPES, pH 7.4, 100 mM NaCl, 0.1% CHAPS, 10 mM DTT, 1 mM EDTA, 10% glycerol).

Jurkat cells = experiment: VP16-induced cell death of Jurkat cells, cytoprotection assay; assay type: cell-based, human; conditions: VP16 10 μM, 7-8 hrs; inhibitors 50 μM
primary cortical neurons [3] = experiment: Real-time FC and fixed-time FM detection of ΔΨm and PMP in neurons treated with neurotoxic molecules; assay type: cell-based, mouse; conditions: for ΔΨm and PMP state of non-trypsinized neurons (FM): FM co-detection JC-1/7-AAD, 45 minutes (mClCCP 100 μM, 30 min)
[4] = test system: neonatal ischemic brain injury in 7 day-old rats
[5] = SD model, compound added at the start of SD at the concentration of column '[ ], μM' (first concentration/target where two are printed)

Cn1cnc(N)c2ncnc1-2 [3-Methyladenine]
Survival (primary cortical neurons [1]; [5]): No

CC(=O)N[C@H](C(=O)N[C@@H](CC(=O)O)C(=O)N[C@H](C(=O)N[C@@H](C)C(=O)N[C@H](C=O)CC(=O)O)C(C)C)C(C)C [Ac-VDVAD-Cho] (Ac-VDVAD-aldehyde)
inhibition of VDVAD-AMC cleavage by recombinant caspase-2 [2]: blocked

Cc1c2oc3c(C)ccc(C(=O)N[C@@H]4C(=O)N[C@H](C(C)C)C(=O)N5CCC[C@H]5C(=O)N(C)CC(=O)N(C)[C@@H](C(C)C)C(=O)O[C@@H]4C)c3nc-2c(C(=O)N[C@@H]2C(=O)N[C@H](C(C)C)C(=O)N3CCC[C@H]3C(=O)N(C)CC(=O)N(C)[C@@H](C(C)C)C(=O)O[C@@H]2C)c(N)c1=O [Actinomycin D] (I: T[dV]P[Sar][NMeV] / II: T[dV]P[Sar][NMeV]; ester I:1-I:C, II:1-II:C; linker I:N-II:N via Actinocin(9to1))
terminal nuclear alterations and PMP in VP16-treated Jurkat cells (Jurkat cells): prevent neither ΔΨm loss nor PMP | ΔΨm loss in VP16-treated Jurkat cells (Jurkat cells): prevent neither ΔΨm loss nor PMP | survival / protection of SD-neurons against cell death (apoptosis hallmarks overall) (primary cortical neurons [1]): promote survival | Survival (primary cortical neurons [1]; [5]): Yes

CC(C)[C@H](CO)Nc1nc(Nc2cc(N)cc(Cl)c2)c2ncn(C(C)C)c2n1 [Aminopurvalanol]
Survival (primary cortical neurons [1]; [5]): No

CC(=O)Oc1ccccc1C(=O)O [Aspirin]
Survival (primary cortical neurons [1]; [5]): No

CC(=O)OCOC(=O)CN(CC(=O)OCOC(C)=O)c1ccccc1OCCOc1ccccc1N(CC(=O)OCOC(C)=O)CC(=O)OCOC(C)=O [BAPTA-AM, acetoxymethyl ester of 1,2-bis(2-aminophenoxy)ethane-N,N,N′,N′-tetraacetic acid]
Survival (primary cortical neurons [1]): No

CO/C1=C\C(C)=C\[C@@H](C)[C@@H](O)[C@@H](C)C/C(C)=C/C=C/[C@H](OC)[C@@H]([C@@H](C)[C@@H](O)[C@H](C)[C@@]2(O)C[C@@H](O)[C@H](C)[C@@H](C(C)C)O2)OC1=O [Bafilomycin A1]
Survival (primary cortical neurons [1]; [5]): No

C[C@@H]1C[C@@H]([C@H](O)CC2CC(=O)NC(=O)C2)C(=O)[C@@H](C)C1 [Cycloheximide]
terminal nuclear alterations and PMP in VP16-treated Jurkat cells (Jurkat cells): prevent neither ΔΨm loss nor PMP | ΔΨm loss in VP16-treated Jurkat cells (Jurkat cells): prevent neither ΔΨm loss nor PMP | survival / protection of SD-neurons against cell death (apoptosis hallmarks overall) (primary cortical neurons [1]): promote survival | Survival (primary cortical neurons [1]; [5]): Yes

O=S(=O)([O-])c1cc(N=C=S)ccc1C=Cc1ccc(N=C=S)cc1S(=O)(=O)[O-].[Na+].[Na+] [DIDS, 4,4′-Diisothiocyanastilbene-2,2′-disulfonic acid disodium salt]
Survival (primary cortical neurons [1]; [5]): No

CCCCCCCCCCC1=C(C)C(=O)C(OC)=C(OC)C1=O [Decyl-Ubiquinone]
Survival (primary cortical neurons [1]; [5]): No

O=c1c(-c2ccc(O)cc2)coc2cc(O)cc(O)c12 [Genistein]
Survival (primary cortical neurons [1]): No

CC1CNCCN1S(=O)(=O)c1cccc2cnccc12 (stereo not drawn) [H-7]
Survival (primary cortical neurons [1]; [5]): No

CCC(=C/[C@H](C)C/C=C/C(C)=C/[C@@H](C)C(=O)[C@@H](C)[C@H](O)[C@@H](C)C/C(C)=C/C(=O)O)/C=C/[C@@H]1OC(=O)C=C[C@@H]1C [Leptomycin B]
Survival (primary cortical neurons [1]; [5]): No

CN1CC=C(c2ccccc2)CC1 [MPTP, 1-methyl-4-phenyl-1,2,3,6-tetrahydropyridine]
ΔΨm and PMP state of non-trypsinized neurons (FM) (primary cortical neurons [3]): most neurons are ΔΨm low without any sign of PMP | ΔΨm low neurons (primary cortical neurons [3]; real-time FC, after 15 minutes of treatment): 49.6%

CC(=O)N[C@@H](CS)C(=O)O [N-Acetyl-Cystein]
Survival (primary cortical neurons [1]; [5]): No

C=C1[C@@H](O)[C@@H]2O[C@]3(CC[C@H](/C=C/[C@@H](C)[C@@H]4CC(C)=C[C@@]5(O[C@H](C[C@@](C)(O)C(=O)O)CC[C@H]5O)O4)O3)CC[C@H]2O[C@@H]1[C@@H](O)C[C@H](C)[C@H]1O[C@@]2(CCCCO2)CC[C@H]1C [Okadaic acid]
Survival (primary cortical neurons [1]; [5]): No

COc1cccc(-c2cc(=O)c3ccccc3o2)c1N [PD 98059]
Survival (primary cortical neurons [1]; [5]): No

CC(C)CC(=O)N[C@H](C(=O)N[C@H](C(=O)N[C@@H](CC(C)C)[C@@H](O)CC(=O)N[C@@H](C)C(=O)N[C@@H](CC(C)C)[C@@H](O)CC(=O)O)C(C)C)C(C)C [Pepstatin] (Isovaleryl-VV[Sta]A[Sta]-OH)
Survival (primary cortical neurons [1]; [5]): No

COC(=O)C[C@H](NC(=O)[C@H](C)NC(=O)[C@@H](NC(=O)[C@H](CC(=O)OC)NC(=O)[C@@H](NC(=O)c1ccc2ccccc2n1)C(C)C)C(C)C)C(=O)COc1c(F)cccc1F [Q-VDVAD-OPH, Quinolinylcarnonyl-L-Valinyl-L-Aspartyl (methyl ester)-X-Vanilyl-L-Alaninyl-L-Aspartyl (methyl ester) 2,6-difluorophenyl ester] (Quinaldoyl-VD(OMe)VA-X1)
survival / protection of SD-neurons against cell death (apoptosis hallmarks overall) (primary cortical neurons [1]): promotes survival of cortical neurons | inhibition of VDVAD-AMC cleavage by recombinant caspase-2 [2]: blocked | infarct volume (% damage in the lesioned ipsilateral hemisphere) ([4]; single i.p. dose before ischemia, 48 hours, mean ±SEM): 5.7±2.3% | reduction in infarct volume ([4]; single i.p. dose before the ischemic onset, 48 hours after ischemia, vs ischemic control): 74% | animals (of the 12 studied) with a very marked smaller infarct ([4]; single i.p. dose, 48 hours): 8 | mean infarct of the four other animals ([4]; single i.p. dose, 48 hours): 16.5±1.32% | median infarct of the 8 animals with a very marked smaller infarct ([4]; single i.p. dose, 48 hours): 0.5% | animals that exhibited no infarct ([4]; single i.p. dose, 48 hrs after ischemia): 8

CC[C@H](CO)Nc1nc(NCc2ccccc2)c2ncn(C(C)C)c2n1 [Roscovitine]
Survival (primary cortical neurons [1]): No

Oc1ccc(-c2nc(-c3ccncc3)c(-c3ccc(F)cc3)[nH]2)cc1 [SB 202190]
Survival (primary cortical neurons [1]; [5]): No

Cc1c(C)c2c(c(C)c1O)CCC(C)(C(=O)O)O2 (stereo not drawn) [Trolox ®]
Survival (primary cortical neurons [1]; [5]): No

CCO [ethanol]
ΔΨm and PMP state of non-trypsinized neurons (FM) (primary cortical neurons [3]): induces a rapid PMP | PMP (primary cortical neurons [3]; real-time FC, after 5 minutes): 98% | ΔΨm loss (primary cortical neurons [3]; real-time FC, after 5 minutes): 75%

N[C@@H](CCC(=O)N[C@@H](CS)C(=O)NCC(=O)O)C(=O)O [glutathion]
Survival (primary cortical neurons [1]; [5]): No

N#CC(C#N)=NNc1cccc(Cl)c1 [mClCCP, carbonyl cyanide m-chlorophenylhydrazone]
ΔΨm and PMP state of non-trypsinized neurons (FM) (primary cortical neurons [3]): induces ΔΨm disruption | time of treatment at which ΔΨm loss of neuronal population is maximal (primary cortical neurons [3]; real-time FC, 100 μM): 2 min

O=C(NC(Cc1ccccc1)C(=O)NC(Cc1ccccc1)C(=O)CF)OCc1ccccc1 (stereo not drawn) [z-FF-fmk, N-benzyloxycarbonyl-Phe-Phe-fluoromethylketone] (Cbz-Phe-Phe-CH2F; configuration not given here)
Survival (primary cortical neurons [1]; [5]): No

N-benzyloxycarbonyl-Phe-Ala-fluoromethylketone [z-FA-fmk]
Survival (primary cortical neurons [1]; [5]): No

Ruthenium Red
Survival (primary cortical neurons [1]; [5]): No
